Assays:
[1] = tested on: E. coli 16S ribosomal A-site (16S) 27-mer synthetic RNA construct; assay: ESI-FTICR MS screening for noncovalent binding to the 16S RNA construct
Description: (§1) Samples were brought to 0.1% heptafluorobutyric acid (HFBA) by the addition of 1% HFBA. A Gilson HPLC system consisting of four 306 pumps and a Gilson 215 liquid handler was used to perform the separations. Sample injection volume was 3 mL. Separation was carried out using a 250×10 mm Phenomenex Aqua C18 column, with a 50×10 mm guard column. Components were eluted using 0.1% HFBA and a gradient of 0 to 40% Acetonitrile (ACN) at a flow rate of 3 mL/min. over 45 minutes. 1 mL fractions were collected every 20 seconds and were assayed without further preparation.
(§2) RNA constructs 16S and 16Sc (FIG. 1A) were obtained from Dharmacon Research, Boulder, Colo. The 16Sc construct contains an 18-atom hexaethylene glycol chain attached to the 5′ terminus of the oligonucleotide as supplied by the manufacturer. The addition of this chain results in a net addition of C12H24O9 P (monoisotopic mass calc 344.1236) to the 16Sc oligonucleotide sequence shown in FIG. 1. The RNA was deprotected according to the manufacturer's directions and ethanol precipitated twice from 1 M ammonium acetate. Paromomycin (MW=615.2963 Da), was obtained from Sigma (St. Louis, Mo.) and ICN (Costa Mesa, Calif.).
The construct shown on the left in FIG. 1A (16S) is the 27-mer synthetic RNA containing the E. coli 16S ribosomal A-site (Purohit, P.; Stern, S. Nature 1994, 370, 659-662). Two positions in the E. coli 16S RNA are noted numerically as 1408 and 1492, referring to the location of these residues in the intact 16S rRNA. These positions have been previously shown to be critical for aminoglycoside recognition and binding (Griffey, R. H.; Hofstadler, S. A.; Sannes-Lowery, K. A.; Ecker, D. J.; Crooke, S. T. Proc. Natl. Acad. Sci. U. S. A. 1999, 96, 10129-10133; Fourmy, D.; Recht, M. I.; Blanchard, S. C.; Puglisi, J. D. Science (Washington, D.C.) 1996, 274, 1367-1371).
Mass spectrometry was performed on a modified Bruker Daltonics (Billerica, Mass.) Apex II 70e electrospray ionization Fourier transform ion cyclotron resonance mass spectrometer equipped with an actively shielded 7 tesla superconducting magnet. Experiments were performed with the source at room temperature, the skimmer potential was held at 0 volts, the capillary exit potential was −126 volts, and other experimental parameters were as described in detail elsewhere (Sannes-Lowery, K. A.; Drader, J. J.; Griffey, R. H.; Hofstadler, S. A. TrAC, Trends Anal. Chem. 2000, 19, 481-491). Binding reactions were comprised of 15 μl of a solution containing 2.5 μM 16S and 16Sc in 100 mM NH4OAc and 33% isopropyl alcohol and 2 μl of the LC fraction in a 96-well microtiter plate. […] The plates were vortexed briefly, and then incubated for 60 minutes at room temperature prior to analysis. Sample aliquots were injected directly from 96-well microtiter plates using a CTC HTS PAL autosampler (LEAP Technologies, Carrboro, N.C.).
The presence of both a specific (16S) and non-specific (16Sc) RNA construct enables the simultaneous determination of binding specificity between target and ligand. In the absence of ligand, the initial peak intensity ratio of 16Sc/16S was determined to be 0.3 as shown in the control spectrum shown in FIG. 1B. The peak intensity ration of 16Sc/16S should remain constant in the absence of ligand binding activity. If a ligand specifically binds the 16S RNA target, the peak intensity ratio of 16Sc/16S will […], while a ligand that binds non-specifically to both targets will not cause a significant change in the peak intensity ratio of 16Sc/16S. Thus, monitoring the 16Sc/16S peak intensity ratio is a convenient metric for characterizing binding specificity.

[2] = tested on: 16S control construct (16Sc); assay: ESI-FTICR MS screening for noncovalent binding to the 16Sc control RNA construct; set-up: species or system E. coli
Description: as §1
as §2, with “Paromomycin (MW=615.2963 Da), was obtained from Sigma (St. Louis, Mo.) and ICN (Costa Mesa, Calif.).” left out
The presence of both a specific (16S) and non-specific (16Sc) RNA construct enables the simultaneous determination of binding specificity between target and ligand. In the absence of ligand, the initial peak intensity ratio of 16Sc/16S was determined to be 0.3 as shown in the control spectrum shown in FIG. 1B. […]

SMILES: NC[C@@H]1O[C@H](O[C@H]2[C@@H](O)[C@H](O[C@@H]3[C@@H](O)[C@H](N)C[C@H](N)[C@H]3O[C@H]3O[C@H](CO)[C@@H](O)[C@H](O)[C@H]3N)O[C@@H]2CO)[C@H](N)[C@@H](O)[C@@H]1O [paromomycin, Paromomycin]
- binding specificity 16S vs 16Sc (result in words) ([1]; 2.5 μM 16S and 16Sc, 100 mM NH4OAc, 33% isopropyl alcohol): binding specifically to 16S RNA
- specificity for the 16S RNA target relative to the new molecule (59-fold vs. 5-fold) ([1]; fraction 146): approximately 11 fold
- abundance of the specific complex of 16S+paromomycin compared to 16S ([1]; fraction 146 (~54.7 minutes) of S. rimosus sp. paromomycinus broth, 5- charge state, FIG. 4): 770%
- specificity of binding to the 16S RNA target over the 16Sc RNA construct ([1]; fraction 146, ratio of complex abundances 16S vs 16Sc): approximately 59 fold
- peak intensity ratio of 16Sc/16S RNA ([1]; fraction #131 (~49.5 minutes), baseline ratio without ligand 0.3): 0.79
- number of paromomycin molecules binding to 16S and 16Sc RNA ([1]; peak of the paromomycin elution (e.g. fraction 138), data not shown): one to four
- abundance of the non-specific complex of 16Sc+paromomycin (relative to 16Sc) ([2]; fraction 146 (~54.7 minutes), FIG. 4): 13%
- binding to the 16Sc RNA (result in words) ([2]; fraction #131, peak would be expected at m/z 1982.11): does not indicate a peak corresponding to paromomycin binding to the 16Sc RNA
